System: embryo–placenta unit
Experiment: Embryo/placental growth metrics (mixed-effect models)
Format: in vivo, mouse (CD-1)
Text: From each uterus, first, viable embryos and their matched placentas were collected in succession within a horn and immediately snap frozen ( n=2–5 per litter ), and subsequent embryos were collected for growth measurements ( n=2–11 per litter ). Additional placentas were collected and placed in 4% paraformaldehyde (PFA) for histological analysis (Block 2 only). Amniotic fluid was collected by needle aspiration from litters euthanized at E11.5 and snap frozen in liquid nitrogen. Embryo livers were collected from litters euthanized at E17.5 and snap frozen in liquid nitrogen. Dam livers were weighed, a portion of the left lateral lobe was placed in 4% PFA for histology, and another portion of the same lobe was snap frozen in liquid nitrogen. A third liver section was obtained from Block 2 dams and fixed in McDowell and Trump’s fixative for electron microscopy (EM). Gross lesions were collected when observed and placed in 4% PFA for histology. Dam kidneys were removed, a cross section was prepared from the right kidney, a longitudinal section was prepared from the left kidney, and both sections were fixed in 4% PFA for histological analysis.
Gross observations were recorded at necropsy. Embryo sex was determined by polymerase chain reaction (PCR) amplification of the Sry gene (forward, 5′-[…]-3′, and reverse, 3′-[…]-5′) using a snipped portion of tissue (TransnetYX®, Inc.). Embryos and their placentas were weighed separately as wet tissue. Images of embryos were obtained on a Leica Z16 APO imaging scope, and embryo length was measured as snout-to-rump distance using FIJI ([Schindelin et al. 2012]) and Zen 2 Blue (Zeiss).
Embryo and placental metrics were analyzed using mixed-effect models and included a priori fixed effects of treatment group and litter size and a random-effects term for the dam using the lme4 package. Embryo and placental metrics included embryo weight, embryo length, placental weight, and embryo:placenta weight ratios, a meaningful predictor of fetal birth outcomes in humans ([Hayward et al. 2016]). To account for potential introduction of random effects, the study block (Block 1 or Block 2) and experimenter handling of embryo/placental tissues (Experimenter A or Experimenter B) were included as additional random effects. Models were fit in a stepwise procedure for random effects, and final models included treatment group and litter size as fixed effects using the lmerTest package ([Kuznetsova et al. 2017]). All final models included dam as a random effect but were allowed to vary in the inclusion of experimenter and experimental block random effects based on likelihood ratio test results. Point estimates and 95% CIs were determined from the final model using the Wald method. The number of individual observations for each outcome (embryo weight, placenta weight, and embryo:placenta weight ratio) and the number of litters evaluated in the mixed-effect models are shown in Table S1.

Structure (SMILES): O=C(O)C(F)(F)C(F)(F)C(F)(F)C(F)(F)C(F)(F)C(F)(F)C(F)(F)F [PFOA, Perfluorooctanoic acid]
- Embryo weight decrease relative to controls (5 mg/kg/d): 9.4%
- Embryo length, adjusted estimate (95% CI) (E11.5, 1 mg/kg/d): 17.5 (14.5, 20.4) mm
- Embryo weight, adjusted estimate (95% CI) (E11.5, 1 mg/kg/d): 44.7 (11.1, 78.2) mg
- Embryo:Placental Weight Ratio, adjusted estimate (95% CI) (E11.5, 1 mg/kg/d): 1.19 (0.62, 1.76)
- Placental weight, adjusted estimate (95% CI) (E11.5, 1 mg/kg/d): 30.5 (-3.8, 64.7) mg
- Embryo length, adjusted estimate (95% CI) (E11.5, 5 mg/kg/d): 18.5 (15.6, 21.4) mm
- Embryo weight, adjusted estimate (95% CI) (E11.5, 5 mg/kg/d): 45.3 (11.8, 78.7) mg
- Embryo:Placental Weight Ratio, adjusted estimate (95% CI) (E11.5, 5 mg/kg/d): 1.21 (0.64, 1.77)
- Placental weight, adjusted estimate (95% CI) (E11.5, 5 mg/kg/d): 31.2 (-2.9, 65.3) mg
- Embryo length, adjusted estimate (95% CI) (E17.5, 1 mg/kg/d): 33.6 (29.6, 37.6) mm
- Embryo weight, adjusted estimate (95% CI) (E17.5, 1 mg/kg/d): 1350.7 (1091.9, 1609.4) mg
- Embryo:Placental Weight Ratio, adjusted estimate (95% CI) (E17.5, 1 mg/kg/d): 11.1 (8.0, 14.3)
- Placental weight, adjusted estimate (95% CI) (E17.5, 1 mg/kg/d): 129.7 (98.2, 161.2) mg
- Embryo BW lower than vehicle control embryos (mixed-effect model estimate) (E17.5, 5 mg/kg/d): 129 mg
- Embryo length, adjusted estimate (95% CI) (E17.5, 5 mg/kg/d): 31.2 (27.2 35.3) mm
- Embryo weight, adjusted estimate (95% CI) (E17.5, 5 mg/kg/d): 1249.5 (991.0, 1508.0) mg
- Embryo:Placental Weight Ratio, adjusted estimate (95% CI) (E17.5, 5 mg/kg/d): 8.5 (5.4, 11.6)
- Estimated increase in placental weight relative to controls (E17.5, 5 mg/kg/d): 21 mg
- Placental weight, adjusted estimate (95% CI) (E17.5, 5 mg/kg/d): 151.9 (120.5, 183.4) mg
- Shift in embryo weight (E17.5, 5 mg/kg/d): -0.129 g

Structure (SMILES): N.O=C(O)C(F)(OC(F)(F)C(F)(F)C(F)(F)F)C(F)(F)F (centres unmarked) [GenX, ammonium 2,3,3,3-tetrafluoro-2-(heptafluoropropoxy)propanoate]
- Embryo length, adjusted estimate (95% CI) (E11.5, 2 mg/kg/d): 17.6 (14.7, 20.5) mm
- Embryo weight, adjusted estimate (95% CI) (E11.5, 2 mg/kg/d): 49.9 (16.7, 83.1) mg
- Placental weight, adjusted estimate (95% CI) (E11.5, 2 mg/kg/d): 34.0 (0.1, 67.8) mg
- Embryo length, adjusted estimate (95% CI) (E11.5, 10 mg/kg/d): 17.4 (14.5, 20.3) mm
- Embryo weight, adjusted estimate (95% CI) (E11.5, 10 mg/kg/d): 45.2 (12.0, 78.3) mg
- Placental weight, adjusted estimate (95% CI) (E11.5, 10 mg/kg/d): 38.4 (4.5, 72.2) mg
- Embryo length, adjusted estimate (95% CI) (E17.5, 2 mg/kg/d): 32.7 (28.7, 36.6) mm
- Embryo weight, adjusted estimate (95% CI) (E17.5, 2 mg/kg/d): 1369.8 (1111.3, 1628.4) mg
- Placental weight, adjusted estimate (95% CI) (E17.5, 2 mg/kg/d): 137.1 (105.6, 168.6) mg
- Embryo length, adjusted estimate (95% CI) (E17.5, 10 mg/kg/d): 33.8 (29.8, 37.7) mm
- Embryo weight, adjusted estimate (95% CI) (E17.5, 10 mg/kg/d): 1337.0 (1077.5, 1596.4) mg
- Placental weight, adjusted estimate (95% CI) (E17.5, 10 mg/kg/d): 146.3 (114.7, 177.9) mg

Source: article PMC7064328 (Environmental Health Perspectives, 2020)
